Laboratory results reported in PubChem BioAssay (NCI).
“And” between values parts separate entries of the source, which are not always exact repeats. Identical values can stand only once.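 Where inhibition never reached the appropriate level, the endpoint shown equals the highest concentration tested. Otherwise, values were interpolated linearly from a five-concentration, 48-hour dose response in 96-well plates. Abbreviation: GI50, concentration required for 50% inhibition of growth. The concentration for full growth arrest is given as TGI.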

Key:
Assay in all cases: NCI tumour cell line growth inhibition, 48 h
[1] = test system: HCT-116 colon
[2] = test system: MDA-N
[3] = test system: SF-295 CNS
[4] = test system: UACC-257 melanoma
[5] = test system: OVCAR-5 ovarian
[6] = test system: SK-MEL-5 melanoma
[7] = test system: PC-3 prostate
[8] = test system: HOP-92 NSCLC
[9] = test system: MOLT-4 leukemia
[10] = test system: A549 NSCLC
[11] = test system: HT29 colon
[12] = test system: OVCAR-3 ovarian
[13] = test system: OVCAR-4 ovarian
[14] = test system: HL-60(TB) leukemia
[15] = test system: SNB-75 CNS
[16] = test system: COLO 205 colon
[17] = test system: MDA-MB-435
[18] = test system: CCRF-CEM leukemia
[19] = test system: K-562 leukemia
[20] = test system: SN12C renal
[21] = test system: UO-31 renal
[22] = test system: NCI/ADR-RES ovarian
[23] = test system: HOP-62 NSCLC
[24] = test system: U251 CNS
[25] = test system: SK-MEL-28 melanoma
[26] = test system: MDA-MB-231 breast
[27] = test system: BT-549 breast
[28] = test system: NCI-H23 lung
[29] = test system: LOX IMVI melanoma
[30] = test system: SK-MEL-2 melanoma
[31] = test system: HCC-2998 colon
[32] = test system: SR leukemia
[33] = test system: IGROV1 ovarian
[34] = test system: HCT-15 colon
[35] = test system: ACHN renal
[36] = test system: RXF 393 renal
[37] = test system: KM12 colon
[38] = test system: UACC-62 melanoma
[39] = test system: SF-539 CNS
[40] = test system: HS 578T breast
[41] = test system: MCF7 breast
[42] = test system: RPMI-8226 leukemia
[43] = test system: M14 melanoma
[44] = test system: SK-OV-3 ovarian
[45] = test system: SW-620 colon
[46] = test system: 786-0 renal
[47] = test system: SF-268 CNS
[48] = test system: SNB-19 CNS
[49] = test system: NCI-H460 lung
[50] = test system: T-47D breast
[51] = test system: CAKI-1 renal
[52] = test system: DU-145 prostate
[53] = test system: TK-10 renal
[54] = test system: MALME-3M melanoma
[55] = test system: OVCAR-8 ovarian
[56] = test system: NCI-H226 lung
[57] = test system: NCI-H522 lung
[58] = test system: EKVX NSCLC
[59] = test system: A498 renal

## COC1OC(COC(=O)NCCCCC(=O)C(F)(F)C(F)(F)C(F)(F)C(F)(F)C(F)(F)C(F)(F)C(F)(F)F)C(O)C(O)C1O (stereo unspecified)
[1]
  TGI: 39.4 µM and 31.9 µM
[2]
  TGI: 51.9 µM and 61.3 µM
[3]
  TGI: 44.8 µM and 44.2 µM
[4]
  TGI: 36.2 µM and 37.7 µM
[5]
  TGI: 32.9 µM and 32.3 µM
[6]
  TGI: 25.8 µM and 24.3 µM
[7]
  TGI: 25.9 µM and 26.5 µM
[8]
  GI50: 14.2 µM and 2.27 µM
  TGI: 28.6 µM and 15.6 µM
[9]
  GI50: 12.5 µM and 4.13 µM
  TGI: 31.7 µM and 23.1 µM
[10]
  TGI: 36.1 µM and 31 µM
[11]
  TGI: 27.4 µM and 35 µM
[12]
  TGI: 29.2 µM and 28.1 µM
[13]
  TGI: 35.3 µM and 28.5 µM
[14]
  GI50: 24.9 µM
  TGI: > 100 µM
[15]
  TGI: 29.3 µM and 27.6 µM
[16]
  TGI: 45 µM and 39.7 µM
[17]
  TGI: 32.2 µM and 31.7 µM
[18]
  GI50: 16.4 µM and 7.62 µM
  TGI: 44 µM and 37.4 µM
[19]
  TGI: 36.8 µM and 37.5 µM
[20]
  TGI: 40.2 µM and 43.5 µM
[21]
  TGI: 30.5 µM and 30.8 µM
[22]
  TGI: 61.8 µM and > 100 µM
[23]
  TGI: 32.1 µM and 30.1 µM
[24]
  TGI: 39.7 µM and 24.6 µM
[25]
  TGI: 31 µM and 30.5 µM
[26]
  TGI: 42.3 µM and 40.2 µM
[27]
  TGI: 31.4 µM and 31.9 µM
[28]
  TGI: 40.4 µM and 34.1 µM
[29]
  TGI: 30.2 µM and 27.9 µM
[30]
  TGI: 40.1 µM and 40.3 µM
[31]
  TGI: 36.5 µM and 37.5 µM
[32]
  TGI: > 100 µM
[33]
  TGI: 30.9 µM and 27.4 µM
[34]
  TGI: 33.1 µM and 38.3 µM
[35]
  TGI: 31.8 µM and 29.9 µM
[36]
  TGI: 26.4 µM and 30.2 µM
[37]
  TGI: 37.1 µM and 48.7 µM
[38]
  TGI: 26.6 µM and 27.5 µM
[39]
  TGI: 29.5 µM and 34.2 µM
[40]
  TGI: 43.8 µM and 33.7 µM
[41]
  TGI: 33.6 µM and 33.4 µM
[42]
  TGI: > 100 µM
[43]
  TGI: 29.7 µM and 29.4 µM
[44]
  TGI: 29.2 µM and 27.2 µM
[45]
  TGI: 31.9 µM and 31.7 µM
[46]
  TGI: 31.4 µM and 30.1 µM
[47]
  TGI: 30.8 µM and 37.1 µM
[48]
  TGI: 34 µM and 34.1 µM
[49]
  TGI: 36.3 µM and 49.5 µM
[50]
  TGI: 39.1 µM and 32.5 µM
[51]
  TGI: 32.9 µM and 30 µM
[52]
  GI50: 34.8 µM and 4.86 µM
  TGI: > 100 µM and 29.9 µM
[53]
  TGI: 30 µM and 32 µM
[54]
  TGI: 44.3 µM and 47.3 µM

## Cc1nn(CN2CCN(C)CC2)c(=S)n1/N=C/c1ccc(-c2ccc(Cl)cc2Cl)o1
[1]
  TGI: > 100 µM
[2]
  TGI: > 100 µM
[4]
  TGI: > 100 µM
[5]
  TGI: > 100 µM
[6]
  TGI: > 100 µM
[55]
  TGI: > 100 µM
[7]
  TGI: > 100 µM
[8]
  TGI: > 100 µM
[9]
  TGI: 98.2 µM
[10]
  TGI: > 100 µM
[11]
  TGI: > 100 µM
[12]
  TGI: > 100 µM
[13]
  TGI: > 100 µM
[14]
  TGI: > 100 µM
[16]
  TGI: > 100 µM
[17]
  TGI: > 100 µM
[19]
  TGI: > 100 µM
[20]
  TGI: > 100 µM
[21]
  TGI: > 100 µM
[22]
  TGI: > 100 µM
[23]
  TGI: > 100 µM
[24]
  TGI: > 100 µM
[25]
  TGI: > 100 µM
[26]
  TGI: > 100 µM
[27]
  TGI: > 100 µM
[28]
  TGI: > 100 µM
[29]
  TGI: > 100 µM
[30]
  TGI: > 100 µM
[31]
  TGI: > 100 µM
[32]
  TGI: > 100 µM
[33]
  TGI: > 100 µM
[34]
  TGI: > 100 µM
[35]
  TGI: > 100 µM
[37]
  TGI: > 100 µM
[38]
  TGI: > 100 µM
[39]
  TGI: > 100 µM
[40]
  TGI: > 100 µM
[41]
  TGI: > 100 µM
[43]
  TGI: > 100 µM
[44]
  TGI: > 100 µM
[45]
  TGI: > 100 µM
[56]
  TGI: 95.2 µM
[46]
  TGI: > 100 µM
[47]
  TGI: > 100 µM
[48]
  TGI: > 100 µM
[57]
  TGI: > 100 µM
[50]
  TGI: > 100 µM
[58]
  TGI: 88.8 µM
[52]
  TGI: > 100 µM
[53]
  TGI: > 100 µM
[59]
  TGI: 56.8 µM
[54]
  TGI: > 100 µM
